# Measured values from ChEMBL document CHEMBL1125767, “New 5H-pyridazino[4,5-b]indole derivatives. Synthesis and studies as inhibitors of blood platelet aggregation and inotropics” (J Med Chem, 1991).
# Key:
# [1] = organism: Cavia porcellus; assay: Inhibition of arachidonic acid induced platelet aggregation in guinea pig whole blood at 5*10e-5 M; type: functional
# [2] = organism: Cavia porcellus; assay: Inhibition of arachidonic acid induced platelet aggregation in guinea pig whole blood at 10e-5 M; type: functional
# [3] = organism: Cavia porcellus; assay: Inhibition of ADP-induced platelet aggregation in guinea pig whole blood at 10e-4 M; type: functional
# [4] = organism: Homo sapiens; assay: Inhibition of arachidonic acid induced platelet aggregation in human platelet rich plasma at 10e-5 M; type: functional
# [5] = organism: Homo sapiens; assay: Inhibition of ADP-induced platelet aggregation in human platelet rich plasma at 10e-5 M; type: functional
# [6] = system: PDE4 (Canis lupus familiaris); assay: Inhibition of canine heart Phosphodiesterase 4 at 100 uM
# [7] = organism: Cavia porcellus; assay: (§1) Inhibition of arachidonic acid induced platelet aggregation in guinea pig whole blood at 5*10e-4 M; type: functional
# [8] = organism: Homo sapiens; assay: Inhibition of collagen induced platelet aggregation in human platelet rich plasma at 10e-5 M; type: functional
# [9] = organism: Cavia porcellus; assay: (§2) Inhibition of ADP-induced platelet aggregation in guinea pig whole blood at 5*10e-4 M; type: functional
# [10] = organism: Cavia porcellus; assay: Inhibition of arachidonic acid induced platelet aggregation in guinea pig whole blood at 10e-4 M; type: functional
# [11] = In vitro inhibitory activity against prostaglandin E2 in platelet aggregation induced by arachidonic acid at 10e-4 M concentration.; type: functional
# [12] = In vitro inhibitory activity against prostaglandin E2 in platelet aggregation induced by arachidonic acid at 5*10e-4 M concentration.; type: functional
# [13] = organism: Homo sapiens; assay: Inhibition of adrenaline induced platelet aggregation in human platelet rich plasma at 10e-5 M; type: functional
# [14] = system: PDE4 (Canis lupus familiaris); assay: Inhibition of canine heart Phosphodiesterase 4 at 50 uM
# [15] = organism: Homo sapiens; assay: Inhibition of adrenaline induced platelet aggregation in human platelet rich plasma at 5*10e-5 M; type: functional
# [16] = organism: Homo sapiens; assay: Inhibition of collagen induced platelet aggregation in human platelet rich plasma at 5*10e-5 M; type: functional
# [17] = organism: Homo sapiens; assay: Inhibition of arachidonic acid induced platelet aggregation in human platelet rich plasma at 5*10e-5 M; type: functional
# [18] = organism: Homo sapiens; assay: nhibition of ADP-induced platelet aggregation in human platelet rich plasma at 5*10e-5 M; type: functional
# [19] = target: PDE4 (Canis lupus familiaris); assay: Inhibition of canine heart phosphodiesterase 4
# [20] = In vitro inhibitory activity against prostaglandin E2 in platelet aggregation induced by arachidonic acid at 5*10e-5 M concentration.; type: functional
# [21] = organism: Cavia porcellus; assay: Inhibition of arachidonic acid induced platelet aggregation in guinea pig whole blood at 10e-6 M; type: functional
# [22] = organism: Cavia porcellus; assay: Inhibition of arachidonic acid induced platelet aggregation in guinea pig whole blood at 5*10e-6 M; type: functional
# [23] = target: T1, Thromboxane-A synthase (Homo sapiens) (UniProt P24557); assay: In vitro inhibitory activity against thromboxane B2 synthetase in platelet aggregation induced by arachidonic acid at 5*10e-4 M concentration; (Change from basal value); type: functional
# T1 sequence (whole entry): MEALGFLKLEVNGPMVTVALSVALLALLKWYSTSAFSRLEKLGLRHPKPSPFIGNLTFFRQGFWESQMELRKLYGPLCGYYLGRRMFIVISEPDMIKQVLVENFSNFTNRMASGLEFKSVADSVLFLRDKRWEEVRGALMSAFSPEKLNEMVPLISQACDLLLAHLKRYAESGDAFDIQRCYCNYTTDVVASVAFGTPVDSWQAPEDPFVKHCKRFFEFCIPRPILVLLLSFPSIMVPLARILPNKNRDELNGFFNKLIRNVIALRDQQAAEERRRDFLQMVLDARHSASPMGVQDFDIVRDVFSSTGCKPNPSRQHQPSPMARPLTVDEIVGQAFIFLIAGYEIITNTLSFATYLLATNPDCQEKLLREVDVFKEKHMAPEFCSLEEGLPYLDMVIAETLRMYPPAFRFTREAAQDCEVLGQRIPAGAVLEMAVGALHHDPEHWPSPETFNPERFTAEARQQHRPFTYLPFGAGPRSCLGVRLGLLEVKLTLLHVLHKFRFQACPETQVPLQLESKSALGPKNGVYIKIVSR
# [24] = target: T1, Thromboxane-A synthase (Homo sapiens); assay: In vitro inhibitory activity against prostaglandin E2 in platelet aggregation induced by arachidonic acid at 5*10e-4 M concentration; (Change from basal value); type: functional
# [25] = target: T1, Thromboxane-A synthase (Homo sapiens); assay: In vitro inhibitory activity against thromboxane B2 synthetase in platelet aggregation induced by arachidonic acid at 10e-4 M concentration; (Change from basal value); type: functional
# [26] = target: T1, Thromboxane-A synthase (Homo sapiens); assay: In vitro inhibitory activity against prostaglandin E2 in platelet aggregation induced by arachidonic acid at 10e-4 M concentration; (Change from basal value); type: functional
# [27] = organism: Cavia porcellus; assay: Inhibition of ADP-induced platelet aggregation in guinea pig whole blood at 5*10e-5 M; type: functional
# [28] = organism: Homo sapiens; assay: Inhibition of arachidinoc acid induced platelet in human platelet rich plasma at 5*10e-5 M; type: functional
# [29] = organism: Homo sapiens; assay: Inhibition of collagen induced platelet aggregation in human platelet rich plasma at 7.5*10e-5 M; type: functional
# [30] = organism: Homo sapiens; assay: Inhibition of arachidinoc acid induced platelet in human platelet rich plasma at 7.5*10e-5 M.; type: functional
# [31] = organism: Homo sapiens; assay: Inhibition of ADP-induced platelet aggregation in human platelet rich plasma at 5*10e-5 M; type: functional
# [32] = organism: Homo sapiens; assay: Inhibition of adrenaline induced platelet aggregation in human platelet rich plasma at 7.5*10e-5 M; type: functional
# [33] = organism: Homo sapiens; assay: Inhibition of ADP-induced platelet aggregation in human platelet rich plasma at 7.5*10e-5 M; type: functional
# [34] = target: T1, Thromboxane-A synthase (Homo sapiens); assay: In vitro inhibitory activity against thromboxane B2 synthetase in platelet aggregation induced by arachidonic acid at 5*10e-3 M concentration; (Change from basal value); type: functional
# [35] = as §2; type: functional, Cavia porcellus
# [36] = target: T1, Thromboxane-A synthase (Homo sapiens); assay: In vitro inhibitory activity against prostaglandin E2 in platelet aggregation induced by arachidonic acid at 5*10e-3 M concentration; (Change from basal value); type: functional
# [37] = organism: Homo sapiens; assay: Inhibition of arachidinoc acid induced platelet in human platelet rich plasma at 10e-5 M; type: functional
# [38] = organism: Cavia porcellus; assay: Inhibition of arachidonic acid induced platelet aggregation in guinea pig whole blood at 5*10e-3 M; type: functional
# [39] = as §1; type: functional, Cavia porcellus
# [40] = organism: Cavia porcellus; assay: Inhibition of ADP-induced platelet aggregation in guinea pig whole blood at 5*10e-3 M; type: functional
# [41] = organism: Cavia porcellus; assay: Inhibition of arachidonic acid induced platelet aggregation in guinea pig whole blood at 5*10e-4 M (not determined); type: functional
compound,measurement,setting,value
Cc1cc(C)n(-c2[nH]nc(N3CCOCC3)c3c4ccccc4nc2-3)n1,Inhibition,[1],59.83%
same,inhibition at 10 µM,[2],0%
same,inhibition at 100 µM,[3],0%
same,inhibition at 10 µM,[4],3.35%
same,inhibition at 10 µM,[5],24.8%
same,inhibition,[6],38%
same,Inhibition,[7],100%
same,inhibition at 10 µM,[8],36.6%
same,Inhibition,[9],47.83%
same,inhibition at 100 µM,[10],99.4%
same,inhibition at 100 µM,[11],-80%
same,Inhibition,[12],-78%
same,inhibition at 10 µM,[13],0%
Cc1cc(C)n(-c2[nH]nc(N3CCN(c4ccc(F)cc4)CC3)c3c4ccccc4nc2-3)n1,inhibition,[14],2.52%
CNNc1[nH]nc(-n2nc(C)cc2C)c2nc3ccccc3c1-2,Inhibition,[15],0%
same,Inhibition,[16],0%
same,inhibition at 100 µM,[3],0%
same,Inhibition,[17],0%
same,Inhibition,[18],0%
same,inhibition,[6],44.8%
same,Inhibition,[7],100%
same,IC50,[19],118 µM
same,Inhibition,[9],33.8%
same,inhibition at 100 µM,[10],7.86%
same,Inhibition,[12],-72.8%
Cc1cc(C)n(-c2[nH]nc(N3CCCCC3)c3c4ccccc4nc2-3)n1,Inhibition,[1],99.5%
same,Inhibition,[20],-100%
same,inhibition at 10 µM,[2],67.5%
same,inhibition at 100 µM,[3],0%
same,inhibition at 10 µM,[4],83.8%
same,inhibition at 10 µM,[5],23.9%
same,inhibition,[6],32.8%
same,Inhibition,[7],100%
same,inhibition at 10 µM,[8],0%
same,Inhibition,[9],64.83%
same,inhibition at 100 µM,[10],99.4%
same,inhibition at 100 µM,[11],-91%
same,Inhibition,[12],-80.4%
same,inhibition at 1 µM,[21],0%
same,inhibition at 10 µM,[13],42.5%
same,Inhibition,[22],26.38%
c1ccc2c(c1)[nH]c1c(-c3ncc[nH]3)nnc(-c3ncc[nH]3)c12,Thromboxane B2 level,[23],-31%
same,Prostaglandin E2 level,[24],119%
same,Thromboxane B2 level,[25],-61%
same,inhibition at 100 µM,[3],23.2%
same,Inhibition,[7],98.88%
same,Inhibition,[9],24.25%
same,inhibition at 100 µM,[10],100%
same,Prostaglandin E2 level,[26],518%
COc1ccccc1N1CCN(c2n[nH]c(N3CCN(c4ccccc4OC)CC3)c3c4ccccc4nc2-3)CC1,inhibition at 100 µM,[3],0%
same,inhibition,[6],7.52%
same,Inhibition,[7],56.13%
same,Inhibition,[9],64%
same,inhibition at 100 µM,[10],26.6%
Cc1cc(C)n(-c2[nH]nc(NN)c3c4ccccc4nc2-3)n1.Cl,Inhibition,[1],0%
same,Inhibition,[27],0%
same,Inhibition,[15],0%
same,Inhibition,[16],0%
same,inhibition at 100 µM,[3],23%
same,Inhibition,[28],4.8%
same,Inhibition,[29],78.4%
same,Inhibition,[7],97%
same,IC50,[19],348 µM
same,Inhibition,[9],90%
same,Inhibition,[30],6.5%
same,Inhibition,[31],22%
same,inhibition at 100 µM,[10],83%
same,Inhibition,[32],22%
same,Inhibition,[33],23%
same,Inhibition,[12],11.8%
COc1ccccc1N1CCN(c2[nH]nc(-n3nc(C)cc3C)c3nc4ccccc4c2-3)CC1,inhibition,[14],11.9%
Cc1cc(C)n(-c2n[nH]c(-n3nc(C)cc3C)c3c4ccccc4nc2-3)n1,inhibition,[6],29.5%
Cc1cc(C)n(-c2[nH]nc(NN)c3c4ccccc4nc2-3)n1 [listing 1 of 2 here],inhibition,[6],9.39%
NNC(=O)c1n[nH]c2c3nc4ccccc4c-3c(NN)nn12 [listing 1 of 3 here],IC50,[19],121 µM
NNC(=O)c1n[nH]c2c3nc4ccccc4c-3c(NN)nn12 [listing 2 of 3 here],inhibition,[6],55.9%
Nc1cc(-c2ccncc2)c[nH]c1=O [INAMRINONE],Inhibition,[7],100%
same,Inhibition,[9],49%
CC(=O)Oc1ccccc1C(=O)O [ASPIRIN],Thromboxane B2 level,[34],-100%
same,Inhibition,[35],100%
same,Prostaglandin E2 level,[36],-100%
same,inhibition at 10 µM,[37],90%
same,Inhibition,[38],30%
same,inhibition at 10 µM,[5],20%
same,inhibition at 10 µM,[8],52%
same,Inhibition,[39],100%
same,inhibition at 10 µM,[13],38.3%
same,Inhibition,[40],15%
CCOc1ccccc1N1CCN(c2[nH]nc(-n3nc(C)cc3C)c3nc4ccccc4c2-3)CC1,inhibition,[14],17.6%
NNc1nncc2ccccc12 [HYDRALAZINE],Inhibition,[7],20%
same,Inhibition,[9],0%
Cc1cc(C)n(-c2n[nH]c(N3CCN(C)CC3)c3c4ccccc4nc2-3)n1,inhibition,[6],33.4%
same,Inhibition,[7],78.25%
same,Inhibition,[9],89.25%
Cc1cc(C)n(-c2[nH]nc(Cl)c3c4ccccc4nc2-3)n1,Inhibition,[7],46.17%
same,Inhibition,[9],31%
CCOC(=O)c1n[nH]c2c3nc4ccccc4c-3c(Cl)nn12,inhibition,[6],37%
same,Inhibition,[7],13.4%
same,Inhibition,[9],57.63%
COc1ccc(N2CCN(c3[nH]nc(-n4nc(C)cc4C)c4nc5ccccc5c3-4)CC2)cc1,inhibition,[6],4.8%
Cc1cc(C)n(-c2[nH]nc(NN)c3c4ccccc4nc2-3)n1 [listing 2 of 2 here],Inhibition,[41],92.14%
same,Inhibition,[9],67.83%
same,Inhibition,[12],96%
NNC(=O)c1n[nH]c2c3nc4ccccc4c-3c(NN)nn12 [listing 3 of 3 here],inhibition at 100 µM,[3],8.25%
same,inhibition at 100 µM,[10],38.3%
